For this experiment, the target named is T1, GABA A α5 (α5β3γ2) (Homo sapiens, UniProt P18507+P31644).
T1 construct: expressed in transfected cells; host or cells: HEK293, transiently transfected; membrane preparation
The experiment is described as follows: [3H]flumazenil competition binding, human GABA A α5 receptor. The conditions noted are these: human receptor α5β3γ2 transiently transfected in HEK293 cells; competition for [3H]flumazenil 0.5 nM; 1 hour at 4° C.; means of two determinations; read-out: hKi GABA A α5. The method in brief: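 Competition with [3H]flumazenil at membranes from HEK293 cells transiently expressing human α5β3γ2, in Krebs-tris buffer pH 7.5. Equilibrium 1 hour at 4° C, filtration with ice-cold 50 mM Tris wash, scintillation counting. Ki values are means of two determinations.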
Consider `Cc1onc(-c2ccc(F)cn2)c1/C=C/c1ncc(C(=O)NCCO)s1` [Example 85, 2-{(E)-2-[3-(5-Fluoro-pyridin-2-yl)-5-methyl-isoxazol-4-yl]-vinyl}-thiazole-5-carboxylic acid (2-hydroxy-ethyl)-amide], for which the Ki was determined as 5.1 nM. Next, `Cc1onc(-c2ccc(F)cn2)c1/C=C/c1ncc(C(=O)N2CCOCC2)s1` [Example 86, (2-{(E)-2-[3-(5-Fluoro-pyridin-2-yl)-5-methyl-isoxazol-4-yl]-vinyl}-thiazol-5-yl)-morpholin-4-yl-methanone]: 31.2 nM; `CCNC(=O)c1cnc(/C=C/c2c(-c3ccc(F)cn3)noc2C)s1` [Example 87, 2-{(E)-2-[3-(5-Fluoro-pyridin-2-yl)-5-methyl-isoxazol-4-yl]-vinyl}-thiazole-5-carboxylic acid ethylamide]: 4 nM. Next, `CNC(=O)c1cnc(/C=C/c2c(-c3ccc(F)cn3)noc2C)s1` [Example 88, 2-{(E)-2-[3-(5-Fluoro-pyridin-2-yl)-5-methyl-isoxazol-4-yl]-vinyl}-thiazole-5-carboxylic acid methylamide]: 6.2 nM. Consider `Cc1onc(-c2ccc(F)cn2)c1/C=C/c1ncc(C(=O)N2CCSCC2)s1` [Example 89, (2-{(E)-2-[3-(5-Fluoro-pyridin-2-yl)-5-methyl-isoxazol-4-yl]-vinyl}-thiazol-5-yl)-thiomorpholin-4-yl-methanone], for which the Ki was found to be 22.8 nM. Next, `Cc1nc(/C=C/c2conc2-c2ccc(F)cn2)sc1C(=O)NC1CCOCC1` [Example 90, 2-{(E)-2-[3-(5-Fluoro-pyridin-2-yl)-isoxazol-4-yl]-vinyl}-4-methyl-thiazole-5-carboxylic acid (tetrahydro-pyran-4-yl)-amide]: 24.8 nM. In the case of `Cc1nc(/C=C/c2conc2-c2ccc(F)cn2)sc1C(=O)NC1CC1` [Example 91, 2-{(E)-2-[3-(5-Fluoro-pyridin-2-yl)-isoxazol-4-yl]vinyl}-4-methyl-thiazole-5-carboxylic acid cyclopropylamide] it was 35.3 nM; in that of `Cc1nc(/C=C/c2conc2-c2ccc(F)cn2)sc1C(=O)NCC1CC1` [Example 92, 2-{(E)-2-[3-(5-Fluoro-pyridin-2-yl)-isoxazol-4-yl]-vinyl}-4-methyl-thiazole-5-carboxylic acid cyclopropylmethyl-amide], 40.4 nM. In the case of `CCCCc1noc(C)c1/C=C/c1nc(C)c(C(=O)NC(C)C)s1` [Example 93, 2-[(E)-2-(3-Butyl-5-methyl-isoxazol-4-yl)-vinyl]-4-methyl-thiazole-5-carboxylic acid isopropylamide] it was 1.9 nM; in that of `CCCCc1noc(C)c1/C=C/c1nc(C)c(C(=O)NC2CCOC2)s1` (stereo not drawn) [Example 94, 2-[(E)-2-(3-Butyl-5-methyl-isoxazol-4-yl)-vinyl]-4-methyl-thiazole-5-carboxylic acid (tetrahydro-furan-3-yl)-amide], 1.2 nM.

On to `CCCCc1noc(C)c1/C=C/c1nc(C)c(C(=O)NCCO)s1` [Example 95, 2-[(E)-2-(3-Butyl-5-methyl-isoxazol-4-yl)-vinyl]-4-methyl-thiazole-5-carboxylic acid (2-hydroxy-ethyl)-amide], for which the Ki was found to be 2.2 nM.

For `CCCCc1noc(C)c1/C=C/c1nc(C)c(C(=O)NC2CCOCC2)s1` [Example 96, 2-[(E)-2-(3-Butyl-5-methyl-isoxazol-4-yl)-vinyl]-4-methyl-thiazole-5-carboxylic acid (tetrahydro-pyran-4-yl)-amide], the Ki came out at 1.5 nM.

Take `CCCCc1noc(C)c1/C=C/c1nc(C)c(C(=O)NC(CO)CO)s1` [Example 98, 2-[(E)-2-(3-Butyl-5-methyl-isoxazol-4-yl)-vinyl]-4-methyl-thiazole-5-carboxylic acid (2-hydroxy-1-hydroxymethyl-ethyl)-amide]: the Ki is 1.9 nM.

Regarding `CCCCc1noc(C)c1/C=C/c1nc(C)c(C(=O)O)s1` [Example 99, 2-[(E)-2-(3-Butyl-5-methyl-isoxazol-4-yl)-vinyl]-4-methyl-thiazole-5-carboxylic acid], the Ki came to 27.6 nM. In the case of `CCCCc1noc(C)c1/C=C/c1nc(C)c(C(N)=O)s1` [Example 100, 2-[(E)-2-(3-Butyl-5-methyl-isoxazol-4-yl)-vinyl]-4-methyl-thiazole-5-carboxylic acid amide] it was 2 nM; in that of `CCCCc1noc(C)c1/C=C\c1nc(C)c(C(=O)NCCO)s1` [Example 101, 2-[(Z)-2-(3-Butyl-5-methyl-isoxazol-4-yl)-vinyl]-4-methyl-thiazole-5-carboxylic acid (2-hydroxy-ethyl)-amide], 28.8 nM.

Take `CCCCc1noc(C)c1/C=C/c1nc(C)c(C(=O)NN(C)C)s1` [Example 102, 2-[(E)-2-(3-Butyl-5-methyl-isoxazol-4-yl)-vinyl]-4-methyl-thiazole-5-carboxylic acid N′,N′-dimethyl-hydrazide]: the Ki was determined as 4.4 nM. Next, `CCCCc1noc(C)c1/C=C/c1nc(C)c(C(=O)NN2CCOCC2)s1` [Example 103, 2-[(E)-2-(3-Butyl-5-methyl-isoxazol-4-yl)-vinyl]-4-methyl-thiazole-5-carboxylic acid morpholin-4-ylamide]: 1.8 nM. In the case of `CCCCc1noc(C)c1/C=C/c1nc(C)c(C(=O)N[C@H](CC)CO)s1` [Example 105, 2-[(E)-2-(3-Butyl-5-methyl-isoxazol-4-yl)-vinyl]-4-methyl-thiazole-5-carboxylic acid ((R)-1-hydroxymethyl-propyl)-amide] it was 7.9 nM; in that of `CCCCc1noc(C)c1/C=C/c1nc(C)c(C(=O)N[C@@H](CC)CO)s1` [Example 106, 2-[(E)-2-(3-Butyl-5-methyl-isoxazol-4-yl)-vinyl]-4-methyl-thiazole-5-carboxylic acid ((S)-1-hydroxymethyl-propyl)-amide], 2.1 nM.

For `CCCCc1noc(C)c1/C=C/c1nc(C)c(C(=O)N[C@H](C)C(F)(F)F)s1` [Example 107, 2-[(E)-2-(3-Butyl-5-methyl-isoxazol-4-yl)-vinyl]-4-methyl-thiazole-5-carboxylic acid ((R)-2,2,2-trifluoro-1-methyl-ethyl)-amide], the Ki came out at 2.6 nM. In the case of `CCCCc1noc(C)c1/C=C/c1nc(C)c(C(=O)N2CC(F)(F)C2)s1` [Example 108, {2-[(E)-2-(3-Butyl-5-methyl-isoxazol-4-yl)-vinyl]-4-methyl-thiazol-5-yl}-(3,3-difluoro-azetidin-1-yl)-methanone], the Ki was 24.5 nM. In the case of `CCCCc1noc(C)c1/C=C/c1nc(C)c(C(=O)N2CC(OC)C2)s1` [Example 109, {2-[(E)-2-(3-Butyl-5-methyl-isoxazol-4-yl)-vinyl]-4-methyl-thiazol-5-yl}-(3-methoxy-azetidin-1-yl)-methanone] it was 33.2 nM; in that of `CCCCc1noc(C)c1/C=C/c1nc(C)c(C(=O)N2CCC2)s1` [Example 110, Azetidin-1-yl-{2-[(E)-2-(3-butyl-5-methyl-isoxazol-4-yl)-vinyl]-4-methyl-thiazol-5-yl}-methanone], 30.8 nM. Next, `CCCCc1noc(C)c1/C=C/c1nc(C)c(C(=O)N[C@H]2CCC[C@@H]2O)s1` [Example 111, 2-[(E)-2-(3-Butyl-5-methyl-isoxazol-4-yl)-vinyl]-4-methyl-thiazole-5-carboxylic acid ((1S,2S)-2-hydroxy-cyclopentyl)-amide]: 5.5 nM. In the case of `CCCCc1noc(C)c1/C=C/c1nc(C)c(C(=O)Nc2cnn(C)c2)s1` [Example 112, 2-[(E)-2-(3-Butyl-5-methyl-isoxazol-4-yl)-vinyl]-4-methyl-thiazole-5-carboxylic acid (1-methyl-1-pyrazol-4-yl)-amide] it was 1.3 nM.

For the compound `CCCCc1noc(C)c1/C=C/c1nc(C)c(C(=O)NC2CC2)s1` [Example 113, 2-[(E)-2-(3-Butyl-5-methyl-isoxazol-4-yl)-vinyl]-4-methyl-thiazole-5-carboxylic acid cyclopropylamide], the Ki worked out at 5.1 nM. In the case of `CCCCc1noc(C)c1/C=C/c1nc(C)c(C(=O)NC2CCC2)s1` [Example 115, 2-[(E)-2-(3-Butyl-5-methyl-isoxazol-4-yl)-vinyl]-4-methyl-thiazole-5-carboxylic acid cyclobutylamide], the Ki was determined as 4.7 nM. Consider `CCCCc1noc(C)c1/C=C/c1nc(C)c(C(=O)NCC2CC2)s1` [Example 116, 2-[(E)-2-(3-Butyl-5-methyl-isoxazol-4-yl)-vinyl]-4-methyl-thiazole-5-carboxylic acid cyclopropylmethyl-amide], for which the Ki amounted to 4.4 nM. As to `CCCCc1noc(C)c1/C=C/c1nc(C)c(C(=O)NC(C)(C)CO)s1` [Example 117, 2-[(E)-2-(3-Butyl-5-methyl-isoxazol-4-yl)-vinyl]-4-methyl-thiazole-5-carboxylic acid (2-hydroxy-1,1-dimethyl-ethyl)-amide], the Ki came out at 21 nM. For `CCCCc1noc(C)c1/C=C/c1nc(C)c(C(=O)NC2CCS(=O)(=O)C2)s1` (stereo not drawn) [Example 118, 2-[(E)-2-(3-Butyl-5-methyl-isoxazol-4-yl)-vinyl]-4-methyl-thiazole-5-carboxylic acid (1,1-dioxo-tetrahydrothiophen-3-yl)-amide], the Ki amounted to 2.5 nM.

For `CCCCc1noc(C)c1/C=C/c1nc(C)c(C(=O)NCC(F)(F)F)s1` [Example 119, 2-[(E)-2-(3-Butyl-5-methyl-isoxazol-4-yl)-vinyl]-4-methyl-thiazole-5-carboxylic acid (2,2,2-trifluoro-ethyl)-amide], the Ki came to 2.4 nM. Consider `CCCCc1noc(C)c1/C=C/c1nc(C)c(C(=O)N2CCOCC2)s1` [Example 120, {2-[(E)-2-(3-Butyl-5-methyl-isoxazol-4-yl)-vinyl]-4-methyl-thiazol-5-yl}-morpholin-4-yl-methanone], for which the Ki came out at 57.8 nM.

Values taken from patent US8178522B2, “Thiazoles” (Hoffmann-La Roche Inc., priority 2009, dated 2012).
